This test deals with S. aureus ATCC 29213. Put plainly: Murine peritoneal sepsis model. In kind it is in vivo, C57BL/6J mice. Here is the method: Adult C57BL/6J mice (˜18 grams, 8-10 weeks old) were used for all experiments. Mice were obtained from the Jackson Laboratory (Bar Harbour, Me., USA) and housed in the IHV SPC animal core facility. Mice were fed standard chow (Harlan Laboratories) and water ad libitum. To assess the protective potency of defensin mimetic BAS00127538, groups of 5 mice were inoculated intraperitoneally ˜10^7 CFU/mL of S. aureus ATCC 29213 in 500 μL saline solution/25% DMSO plus 4.5% (w/v) porcine gastric mucin (Sigma Chemical Co., St Louis, Mo.). Infected animals (n=5) were subsequently treated by intra-peritoneal injection 1 and 4 hours post-infection with 2.5 mg/kg of compound in 100 μL sterile saline solution plus 25% DMSO (V/V), vancomycin/lysostaphin (5 mg/kg, saline solution/25% DMSO) or vehicle (saline solution/25% DMSO) as positive and negative controls respectively. Animals were closely observed during a period of 24 hours and mice that show signs of severe sepsis were humanely euthanized. Blood samples were collected by retro-orbital puncture at the indicated intervals post-infection using lithium-heparin polystyrene tubes to prevent coagulation. Spleens were harvested aseptically, weighed and homogenized in 500 μl of sterile saline solution using an IKA T10 basic disperser (IKA, Wilmington N.C.). Whole blood samples and spleen homogenates were serially diluted and plated onto LB agar plates. Bacterial counts were determined following 24 h incubation at 37° C. and expressed as CFU per milliliter for blood and CFU per gram for spleen.
Next, a murine model for sepsis was established to evaluate the efficacy of the lead defensin mimetics as antibiotic agents in vivo. […] Mice (n=5) were inoculated intraperitoneally with S. aureus 29213 and treated 1 h and 4 h post-infection with compound BAS00127538 at 2.5 mg/kg intraperitoneally Animals were monitored for survival and blood and spleen samples were collected. Bacterial counts were determined and compared to control treatment with vancomycin/lysostaphin as measures of efficacy (FIG. 6).

On to `CN1/C(=C/C=C/c2cc(-c3ccccc3)cc(-c3ccccc3)[o+]2)C(C)(C)c2ccccc21` [BAS00127538, 2,4-diphenyl-6-[(1E)-3-[(2E)-1,3,3-trimethyl-2,3-dihydro-1H-indol-2-ylidene]prop-1-en-1-yl]-1$1^4-pyran-1-ylium], for which, under “2.5 mg/kg intraperitoneally 1 h and 4 h post-infection”, the “Bacterial counts in spleen and blood” value is “significantly reduced”. The Survival of animals (2.5 mg/kg intraperitoneally 1 h and 4 h post-infection, n=5 mice) is on record as 4 out of five. Besides, for the setting “mouse, in vivo”, the “Efficacy in vivo in a murine model for sepsis” value is given as “proven effective”.

The record behind these values is patent US9351963B2, “Defensin-like molecules as novel antimicrobial agents” (UNIVERSITY OF MARYLAND, BALTIMORE, priority 2010, dated 2016).
